# Tests used:
# [1] = test system: pregnant rats; test: Abortion test on female rats (termination of early pregnancy); format: in vivo, rat; settings: d5-d7 p.c., autopsy d9 p.c.
# Protocol: EXAMPLE 17 ABORTION TEST ON FEMALE RATS
# The action of progesterone and of the progesterone receptor is a fundamental precondition for successful pregnancy or gestation in mammals. The progesterone-antagonistic action of the compounds according to the invention was tested on pregnant rats (6 rats per group) on day 5 to 7 post coitum with conventional housing and feeding conditions.
# After successful hand mating, the pregnant animals (presence of sperm in the vaginal smear on day 1 of pregnancy=d1 p.c.) were randomized and divided into the treatment group and the control group. The animals then each received subcutaneously or orally 0.15; 0.5; 1.5 or 5 mg/kg of the test compound or 1.0 ml/kg of vehicle (benzyl benzoate/castor oil: 1+4 [v/v]) daily from day 5 to day 7 (d5-d7 p.c.).
# Autopsy was carried out on day 9 (d9 p.c.). As a characteristic of progesterone receptor antagonistic action, the uterus was examined for the presence of nidation sites. Complete absence, or also the presence of pathological, haemorrhagic or otherwise abnormal nidation sites on day 9 (d9 p.c.) was assessed as abortion.
# [2] = target: T1, human progesterone receptor B (Homo sapiens, UniProt P06401); test: Progesterone receptor-antagonistic action in stably transfected SK-N-MC cells, MTV-LUC reporter (PR-B); format: cell-based; settings: for Progesterone receptor B (PR-B) Efficacy: antagonistic efficacy vs 0.1 nmol/l promegestone; for IC50: antagonism of 0.1 nmol/l promegestone, 24 hours, LUC reporter, read-out: Progesterone receptor B (PR-B) Potency IC50
# T1 construct: expressed in transfected cells; host or cells: SK-N-MC human neuroblastoma cells, stably transfected
# T1 sequence (P06401 1-933): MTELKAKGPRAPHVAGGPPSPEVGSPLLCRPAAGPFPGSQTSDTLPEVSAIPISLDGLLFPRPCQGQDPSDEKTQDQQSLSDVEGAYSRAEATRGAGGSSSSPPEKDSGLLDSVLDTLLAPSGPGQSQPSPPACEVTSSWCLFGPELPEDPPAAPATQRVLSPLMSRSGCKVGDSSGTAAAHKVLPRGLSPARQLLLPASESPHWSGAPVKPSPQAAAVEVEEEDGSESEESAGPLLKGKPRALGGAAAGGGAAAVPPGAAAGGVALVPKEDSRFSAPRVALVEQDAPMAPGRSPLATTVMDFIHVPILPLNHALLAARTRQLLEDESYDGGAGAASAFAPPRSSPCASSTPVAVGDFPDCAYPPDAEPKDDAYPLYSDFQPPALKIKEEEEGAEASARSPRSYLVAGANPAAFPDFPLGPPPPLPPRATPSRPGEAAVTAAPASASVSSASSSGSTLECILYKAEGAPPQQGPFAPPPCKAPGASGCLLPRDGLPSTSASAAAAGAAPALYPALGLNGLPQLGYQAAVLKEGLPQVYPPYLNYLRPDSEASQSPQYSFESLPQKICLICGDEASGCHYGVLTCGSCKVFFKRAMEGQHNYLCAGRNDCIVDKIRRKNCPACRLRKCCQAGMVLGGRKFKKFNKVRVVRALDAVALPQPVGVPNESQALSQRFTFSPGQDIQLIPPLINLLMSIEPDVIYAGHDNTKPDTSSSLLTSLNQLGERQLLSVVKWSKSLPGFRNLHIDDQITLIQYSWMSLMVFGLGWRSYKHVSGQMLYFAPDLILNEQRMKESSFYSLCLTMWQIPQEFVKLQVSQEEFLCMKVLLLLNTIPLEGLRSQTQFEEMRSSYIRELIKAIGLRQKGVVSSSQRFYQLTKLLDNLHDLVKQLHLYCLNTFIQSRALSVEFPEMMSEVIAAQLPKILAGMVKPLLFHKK
# Protocol: (§1) EXAMPLE 16 PROGESTERONE RECEPTOR-ANTAGONISTIC ACTION IN STABLE TRANSFECTANTS OF HUMAN NEUROBLASTOMA CELLS (SK-N-MC CELLS) WITH THE HUMAN PROGESTERONE A OR PROGESTERONE B RECEPTOR AND AN MTV-LUC REPORTER CONSTRUCT
# (§2) SK-N-MC cells (human neuroblastoma cells), which have been stably transfected with plasmids, which express the human progesterone receptor B (pRChPR-B-neo) or the human progesterone receptor A (pRChPR-A-neo) and a reporter construct (pMMTV-LUC), were incubated for 24 hours either in the absence (negative control) or in the presence of increasing amounts of the respective test compound (0.01 nmol/l, 0.1 nmol/l 1 nmol/l, 10 nmol/l, 100 nmol/l and 1 μmol/l), in order to determine the agonistic efficacy. As positive control of reporter gene induction, the cells were treated with the synthetic gestagen promegestone (0.01 nmol/l, 0.1 nmol/l, 1 nmol/l, 10 nmol/l, 100 nmol/l and 1 μmol/l). For determination of the antagonistic activity, the cells were treated with 0.1 nmol/1 promegestone and additionally with increasing amounts of the respective test compound (0.01 nmol/l, 0.1 nmol/l, 1 nmol/l, 10 nmol/l, 100 nmol/l and 1 μmol/l). The activity of the LUC reporter gene (LUC=luciferase) was determined in the cell lysates and was measured as RLU (relative light units). All measured values are given as percentage efficacy and as EC50 or IC50 concentrations.
# (§3) 11β-(4-Acetylphenyl)-20,20,21,21,21-pentafluoro-17-hydroxy-19-nor-17α-pregna-4,9-dien-3-one and 20,20,21,21,21-pentafluoro-17-hydroxy-11β-[4-(hydroxyacetyl)phenyl]-19-nor-17α-pregna-4,9-dien-3-one, very potent and therefore preferred examples from WO98/34947 and WO2008/058767, were tested as comparative compounds along with the test compound.
# [3] = target: T2, human progesterone receptor A (Homo sapiens, UniProt P06401); test: Progesterone receptor-antagonistic action in stably transfected SK-N-MC cells, MTV-LUC reporter (PR-A); format: cell-based; settings: for Progesterone receptor A (PR-A) Efficacy: antagonistic efficacy vs 0.1 nmol/l promegestone; for IC50: antagonism of 0.1 nmol/l promegestone, 24 hours, LUC reporter, read-out: Progesterone receptor A (PR-A) Potency IC50
# T2 construct: expressed in transfected cells; host or cells: SK-N-MC human neuroblastoma cells, stably transfected
# T2 sequence (P06401 1-769 isoform P06401-2): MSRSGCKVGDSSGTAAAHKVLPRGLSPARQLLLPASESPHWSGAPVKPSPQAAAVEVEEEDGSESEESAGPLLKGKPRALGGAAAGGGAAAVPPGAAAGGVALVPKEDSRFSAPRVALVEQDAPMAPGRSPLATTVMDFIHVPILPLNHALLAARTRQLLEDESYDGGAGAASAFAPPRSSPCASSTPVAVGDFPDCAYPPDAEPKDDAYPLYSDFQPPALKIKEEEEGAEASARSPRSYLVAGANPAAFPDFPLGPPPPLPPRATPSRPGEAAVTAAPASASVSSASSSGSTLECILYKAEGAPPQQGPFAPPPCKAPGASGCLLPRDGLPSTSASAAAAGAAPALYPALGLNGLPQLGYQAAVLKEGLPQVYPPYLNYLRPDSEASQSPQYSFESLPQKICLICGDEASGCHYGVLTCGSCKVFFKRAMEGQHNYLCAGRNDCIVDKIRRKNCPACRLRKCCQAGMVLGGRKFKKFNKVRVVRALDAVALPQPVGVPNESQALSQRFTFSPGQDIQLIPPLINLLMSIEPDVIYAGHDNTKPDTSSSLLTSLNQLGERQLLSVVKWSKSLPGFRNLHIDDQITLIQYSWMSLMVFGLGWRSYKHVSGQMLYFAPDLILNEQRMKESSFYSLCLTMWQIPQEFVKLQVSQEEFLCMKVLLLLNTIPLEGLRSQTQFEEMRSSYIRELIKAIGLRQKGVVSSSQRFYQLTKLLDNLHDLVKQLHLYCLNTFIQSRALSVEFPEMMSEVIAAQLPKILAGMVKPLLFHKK
# Protocol: as §1, §2, §3
# [4] = daily dose 0.5 mg/kg s.c. or p.o.
# [5] = daily dose 1.5 mg/kg s.c. or p.o.
# [6] = daily dose 5.0 mg/kg s.c. or p.o.
SMILES,Progesterone receptor B (PR-B) Efficacy [2],Progesterone receptor A (PR-A) Efficacy [3],IC50 [3],IC50 [2],other results
"CSc1ccc([C@H]2C[C@@]3(C)[C@@H](CC[C@@]3(O)C(F)(F)C(F)(F)F)[C@@H]3CCC4=CC(=O)CCC4=C32)cc1 [Example 1, (11β,17β)-17-hydroxy-11-[4-(methylsulphanyl)phenyl]-17-(pentafluoroethyl)estra-4,9-dien-3-one]",100%,100%,–,–,"Abortion rate [1, 4]: 80%; Abortion rate [1, 5]: 100%; Abortion rate [1, 6]: 100%"
"CCSc1ccc([C@H]2C[C@@]3(C)C(CC[C@@]3(O)C(F)(F)C(F)(F)F)C3CCC4=CC(=O)CCC4=C32)cc1 (stereo partly drawn) [Example 2, (11β,17β)-11-[4-(ethylsulphanyl)phenyl]-17-hydroxy-17-(pentafluoroethyl)estra-4,9-dien-3-one]",–,–,0.01 nM,–,–
"CN(C)S(=O)(=O)c1ccc([C@H]2C[C@@]3(C)[C@@H](CC[C@@]3(O)C(F)(F)C(F)(F)F)[C@@H]3CCC4=CC(=O)CCC4=C32)cc1 [Example 15, 4-[(11β,17β)-17-Hydroxy-3-oxo-17-(pentafluoroethy)estra-4,9-dien-11-yl]-N,N-dimethylbenzene Sulphonamide]",–,–,0.1 nM,0.2 nM,–
"C[S+]([O-])c1ccc([C@H]2C[C@@]3(C)[C@@H](CC[C@@]3(O)C(F)(F)C(F)(F)F)[C@@H]3CCC4=CC(=O)CCC4=C32)cc1 (mixture of isomers) [Example 3, (11β,17β)-17-Hydroxy-11-{4-[(RS)-methylsulphinyl]phenyl}-17-(pentafluoroethy)estra-4,9-dien-3-one]",100%,100%,–,–,–
"C[C@]12C[C@H](c3ccc(S(C)(=N)=O)cc3)C3=C4CCC(=O)C=C4CCC3C1CC[C@@]2(O)C(F)(F)C(F)(F)F (stereo partly drawn) [Example 8, (11β,17β)-17-Hydroxy-11-[4-(RS-methylsulphonimidoyl)phenyl]-17-(pentafluoroethyl)estra-4,9-dien-3-one]",100%,100%,–,–,"Abortion rate ([1]; daily dose 0.15 mg/kg s.c. or p.o.): 40%; Abortion rate [1, 4]: 100%; Abortion rate [1, 5]: 100%; Abortion rate [1, 6]: 100%"
"CC(=O)c1ccc(C2CC3(C)C(CCC3(O)C(F)(F)C(F)(F)F)C3CCC4=CC(=O)CCC4=C23)cc1 (stereo not drawn) [11β-(4-Acetylphenyl)-20,20,21,21,21-pentafluoro-17-hydroxy-19-nor-17α-pregna-4,9-dien-3-one, reference compound]",–,–,0.014 nM,0.02 nM,–
"CN(C)S(=O)(=O)c1ccc(-c2ccc([C@H]3C[C@@]4(C)[C@@H](CC[C@@]4(O)C(F)(F)C(F)(F)F)[C@@H]4CCC5=CC(=O)CCC5=C43)cc2)cc1 [Example 14, 4′-[(11β,17β)-17-hydroxy-3-oxo-17-(pentafluoroethyl)estra-4,9-dien-11-yl]-N,N-dimethylbiphenyl-4-sulphonamide]",–,–,0.01 nM,–,–
"CSc1ccc(-c2ccc([C@H]3C[C@@]4(C)[C@@H](CC[C@@]4(O)C(F)(F)C(F)(F)F)[C@@H]4CCC5=CC(=O)CCC5=C43)cc2)cc1 [Example 9, (11β,17β)-17-Hydroxy-11-[4′-(methylsulphanyl)biphenyl-4-yl]-17-(pentafluoroethy)estra-4,9-dien-3-one]",–,–,0.01 nM,0.01 nM,–
